Measurements: the supplement of paper PMC13380429

Tests used:
HepG2 [1] = assay: drug sensitivity score (DSS) for viability; higher = more toxic; extreme values may be limits of the assay; conditions: 72 h
Vero E6 [2] = assay: as above; conditions: 72 h
Calu-3 [3] = assay: as above; conditions: 72 h
U2OS [4] = assay: as above; conditions: 72 h
[5] = tested on: A549-ACE2 infected with SARS-CoV-2; assay: morphology score (similarity to uninfected cells); higher = more like uninfected cells; conditions: 24 h
Caco-2 [6] = assay: drug sensitivity score (DSS) for viability; higher = more toxic; extreme values may be limits of the assay; conditions: 72 h
[7] = tested on: A549-ACE2 infected with SARS-CoV-2; assay: SARS-CoV-2 infection rate relative to DMSO; higher = more infection; conditions: 24 h
A549-ACE2 [8] = assay: phospholipidosis EC50; higher = less potent phospholipidosis inducer
A549-ACE2 [9] = assay: drug-induced phospholipidosis relative to tamoxifen; higher = more phospholipidosis
HepG2 [10] = assay: cell viability relative to DMSO; higher = less toxic; conditions: 72 h
Vero E6 [11] = assay: as above; conditions: 72 h
Caco-2 [12] = assay: as above; conditions: 72 h
Calu-3 [13] = assay: as above; conditions: 72 h
U2OS [14] = assay: as above; conditions: 72 h
[15] = tested on: A549-ACE2 infected with SARS-CoV-2; assay: cell count relative to DMSO; higher = less toxic; conditions: 24 h
Vero E6 [16] = assay: relative viability EC50 (midpoint between 100% and the lowest measured viability); higher = less toxic; conditions: 72 h
Calu-3 [17] = assay: as above; conditions: 72 h
U2OS [18] = assay: as above; conditions: 72 h
HepG2 [19] = assay: as above; conditions: 72 h
Caco-2 [20] = assay: as above; conditions: 72 h

C[C@@H]1C[C@@H]([C@H](O)CC2CC(=O)NC(=O)C2)C(=O)[C@@H](C)C1 [cycloheximide]
Conditions | drug sensitivity score
Calu-3 [3] | 7.3
HepG2 [1] | 14.3
U2OS [4] | 13.8
Vero E6 [2] | 13.8

[5]
Conditions | morphology score
0.3 µM | 0.91
3 µM | 0.69
10 µM | 0.52
30 µM | 0.48

CCCCCCCCNC(=O)/C(C#N)=C/c1cn(CCCN(C)C)c2ccccc12 [dynole-34-2]
Conditions | drug sensitivity score | relative viability EC50 [µM]
Caco-2 [6] | 2.5 | –
Calu-3 [3] | 6.6 | –
Calu-3 [17] | – | 2.61
HepG2 [1] | 2.6 | –
U2OS [4] | 5.1 | –
U2OS [18] | – | 3.29
Vero E6 [2] | 0 | –
Vero E6 [16] | – | > 10

Conditions | SARS-CoV-2 infection rate [%] | cell count [%] | cell viability [%] | morphology score | phospholipidosis EC50 [µM]
A549-ACE2 [8], 24 h | – | – | – | – | 0.825
A549-ACE2 [8], 48 h | – | – | – | – | 3.88
A549-ACE2 [8], 72 h | – | – | – | – | 6.62
Caco-2 [12], 1 nM | – | – | 97.3 | – | –
Caco-2 [12], 10 nM | – | – | 100 | – | –
Caco-2 [12], 100 nM | – | – | 103 | – | –
Caco-2 [12], 1000 nM | – | – | 95.5 | – | –
Caco-2 [12], 10000 nM | – | – | 63.9 | – | –
Calu-3 [13], 1 nM | – | – | 98.3 | – | –
Calu-3 [13], 10 nM | – | – | 96.7 | – | –
Calu-3 [13], 100 nM | – | – | 105 | – | –
Calu-3 [13], 1000 nM | – | – | 93.1 | – | –
Calu-3 [13], 10000 nM | – | – | -0.1 | – | –
HepG2 [10], 1 nM | – | – | 96.5 | – | –
HepG2 [10], 10 nM | – | – | 93.4 | – | –
HepG2 [10], 100 nM | – | – | 97.9 | – | –
HepG2 [10], 1000 nM | – | – | 95.8 | – | –
HepG2 [10], 10000 nM | – | – | 62 | – | –
U2OS [14], 1 nM | – | – | 104 | – | –
U2OS [14], 10 nM | – | – | 104 | – | –
U2OS [14], 100 nM | – | – | 99 | – | –
U2OS [14], 1000 nM | – | – | 102 | – | –
U2OS [14], 10000 nM | – | – | 5.2 | – | –
Vero E6 [11], 1 nM | – | – | 104 | – | –
Vero E6 [11], 10 nM | – | – | 102 | – | –
Vero E6 [11], 100 nM | – | – | 102 | – | –
Vero E6 [11], 1000 nM | – | – | 98.6 | – | –
Vero E6 [11], 10000 nM | – | – | 91.2 | – | –
[5], 0.3 µM | – | – | – | -0.05 | –
[7], 0.3 µM | 105 | – | – | – | –
[15], 0.3 µM | – | 97 | – | – | –

drug-induced phospholipidosis [%], A549-ACE2 [9]
Conditions | 0.3 µM | 0.833333 µM | 3.33333 µM | 6.66667 µM | 10 µM
24 h | 1.06 | 56.4 | 87.1 | 96.8 | 112
48 h | 1.92 | 50.3 | 46.7 | 92 | 119
72 h | 2.02 | 41.5 | 27.6 | 81.2 | 120

Cc1[nH]cnc1-c1ccc(Cl)cc1 [lofemizole]
Conditions | drug sensitivity score | relative viability EC50 [µM]
Caco-2 [6] | 0 | –
Caco-2 [20] | – | > 10
HepG2 [1] | 0 | –
HepG2 [19] | – | > 10
U2OS [4] | 0 | –
U2OS [18] | – | > 10
Vero E6 [2] | 0 | –
Vero E6 [16] | – | > 10

Conditions | SARS-CoV-2 infection rate, [7] [%] | cell count, [15] [%] | cell viability, Caco-2 [12] [%] | cell viability, HepG2 [10] [%] | cell viability, U2OS [14] [%] | cell viability, Vero E6 [11] [%] | morphology score, [5]
1 nM | – | – | 98.4 | 99.4 | 95.9 | 103 | –
10 nM | – | – | 94.9 | 102 | 97.2 | 97 | –
100 nM | – | – | 95.2 | 105 | 97.5 | 96.5 | –
0.3 µM | 94 | 97 | – | – | – | – | 0.05
1000 nM | – | – | 98.7 | 93 | 99.2 | 96.7 | –
3 µM | 104 | 102 | – | – | – | – | 0.07
10 µM | 105 | 100 | – | – | – | – | -0.16
10000 nM | – | – | 101 | 107 | 103 | 102 | –
30 µM | 100 | 94 | – | – | – | – | -0.13

drug-induced phospholipidosis [%], A549-ACE2 [9]
Conditions | 0.3 µM | 0.833333 µM | 3.33333 µM | 6.66667 µM | 10 µM | 30 µM
24 h | 3.89 | -1.13 | 0.51 | -0.91 | 0.71 | 5.39
48 h | 4.07 | 0.92 | 2.92 | 3.98 | 3.67 | 11.9
72 h | 4.05 | 0.285 | 0.756 | 2.05 | 2.84 | 12.6
